Measured values reported in ChEMBL document CHEMBL1146990, “Antibacterial activity of (-)-deoxypseudophrynaminol versus its racemate and derivatives” (2006).
Activity calls are given as the source filed them. The calls are words filed in the database; no cut-off is given here.

Legend:
Staphylococcus aureus [1] = assay: Antibacterial activity against Staphylococcus aureus at 40 ug/ml relative to control; type: functional
Staphylococcus aureus [2] = assay: Antibacterial activity against Staphylococcus aureus at 10 ug/ml relative to control; type: functional

| SMILES | Activity (Staphylococcus aureus [1]) | Activity (Staphylococcus aureus [2]) |
| --- | --- | --- |
| CC(C)=CC[C@@]12CCN(C)[C@@H]1Nc1ccccc12 (racemic) [listing 1 of 2 here] | 85% |  |
| CC(C)=CC[C@@]12CCN(C)[C@@H]1Nc1ccccc12 (racemic) [listing 2 of 2 here] |  | inactive |
| CC(C)=CCN1c2ccccc2[C@]2(CC=C(C)C)CCN(C)[C@H]12 (racemic) [(-)-DEBROMOFLUSTRAMINE B] | 30% |  |
| CC(C)=CC[C@@]12CCN(C)[C@@H]1Nc1ccccc12 | 99% | 50% |
| COC(=O)N1CC[C@@]2(CC=C(C)C)c3ccccc3N(CC=C(C)C)[C@@H]12 (racemic) | inactive | inactive |
